In patent US12653892B2, “Composition and method for new therapeutic agents including guanidinium-presenting dendrimers and branched structures” (priority 2020, dated 2026):
≈ marks a conversion by molar mass, not a printed value. Where two headings read alike, the source gives them in different places.

Key:
S. aureus ATCC 29213 [1] = assay: MIC by broth microdilution, S. aureus ATCC 29213; assay type: cell-based; conditions: for MIC, Antibiotic +NH2-triguan-6C / MIC, Antibiotic +NO2-triamine-2C / MIC, Antibiotic +NO2-triamine-6C: non-covalent mixture; for MIC: Staphylococcus aureus
Experimental: (§1) Methods—Determination of MICs: MICs for S. aureus, E. faecium, E. coli, P aeruginosa, A. baumannii, K. pneumoniae were determined using broth microdilution in accordance with CLSI methods (Wiegand, I.; Hilpert, K.; Hancock, R. E. W. Agar and Broth Dilution Methods to Determine the Minimal Inhibitory Concentration (MIC) of Antimicrobial Substances. Nat. Protoc. 2008, 3, 163-175). One day prior to each MIC experiment, bacterial strains were streaked for single colonies on TSA plates from frozen glycerol stocks stored at −80° C. Three to five colonies from each plate were harvested with a disposable inoculating loop and resuspended in 500 μL of PBS to create a bacterial suspension. Alternatively, a single colony of the appropriate bacterial strain was added to 4 mL TSB for overnight growth at 37° C. with 200 rpm shaking to create a stationary phase bacterial suspension. The suspension was diluted in PBS to an OD600 of 0.1 (˜[…] CFU/ml), and the OD 0.1 suspension was diluted 1:100 in Mueller Hinton broth (MHB, Difco 257530) just prior to inoculating the 96-well polypropylene treatment plate (Costar 3879). A 50 μL portion of inoculum was added to a treatment plate containing 2-fold serial dilutions of compound in MHB (50 μL of treatment/well) to lend a final total volume of 100 μL/well and a final inoculum density of ˜5×10^5 CFU/ml. The completed assay plate was sealed with Parafilm, placed in a lidded plastic tray lined with moistened paper towels, and incubated at 37° C. for approximately 20 hours. The MIC was read as the lowest treatment concentration where no bacterial growth occurred, as determined by OD600 measurements on a microplate reader. If a different plate or media type was used for a particular test, this is noted below the respective table.

S. aureus USA400 (MRSA) = assay: MIC by broth microdilution, S. aureus USA400 (MRSA); assay type: cell-based; conditions: Staphylococcus aureus
Experimental: as §1, with “A 50 μL portion of inoculum was added to a treatment plate containing 2-fold serial dilutions of compound in MHB (50 μL of treatment/well) to lend a final total volume of 100 μL/well and a final inoculum density of ˜5×10^5 CFU/ml. The completed assay plate was sealed with Parafilm, placed in a lidded plastic tray lined with moistened paper towels, and incubated at 37° C. for approximately 20 hours.” left out, “If a different plate or media type was used for a particular test, this is noted below the respective table.” left out

M. smegmatis = assay: MIC, resazurin readout, M. smegmatis; assay type: cell-based; conditions: Mycolicibacterium smegmatis
Experimental: (§2) MICs for C. glutamicum and the mycobacteria, M. smegmatis and M. abscessus, were determined as follows. A suspension of stationary phase culture was adjusted with PBS to approximately 10^8 CFU/mL and diluted 1:100 in nutrient media just prior to inoculating 96-well polystyrene treatment plates (Costar 3370). Nutrient media was Mueller Hinton Broth for C. glutamicum and Middlebrook media (Middlebrook 7H9 Broth with 0.2% glycerol and 10% OADC supplement, Difco, BD) for mycobacteria. A 50 μL portion of inoculum was added to a treatment plate containing 2-fold serial dilutions of compounds in the same media (50 μL of treatment/well) to lend a final total volume of 100 μL/well and a final inoculum density of ˜5×10^5 CFU/ml. The completed assay plate was sealed with Parafilm, placed in a lidded plastic tray lined with moistened paper towels, and incubated at 37° C. for around 22 h (C. glutamicum), 42-44 h (M. smegmatis) or 46-48 hours (M. abscessus). […] The MIC was identified as the lowest treatment concentration of drug that prevented color change of resazurin from blue to pink/violet, as determined by measuring fluorescence in a black microtiter plate with excitation at 570 nm and emission at 615 nm on a Molecular Devices M5 microplate reader.

M. abscessus = assay: MIC, resazurin readout, M. abscessus; assay type: cell-based; conditions: Mycobacteroides abscessus
Experimental: as §2

C. glutamicum = assay: MIC, resazurin readout, C. glutamicum; assay type: cell-based; conditions: Corynebacterium glutamicum
Experimental: as §2

E. coli ATCC 25922 = assay: MIC by broth microdilution, E. coli ATCC 25922; assay type: cell-based; conditions: Escherichia coli, ATCC25922
Experimental: as §1

E. coli UTI89 = assay: MIC by broth microdilution, E. coli UTI89; assay type: cell-based; conditions: Escherichia coli
Experimental: as §1, with “A 50 μL portion of inoculum was added to a treatment plate containing 2-fold serial dilutions of compound in MHB (50 μL of treatment/well) to lend a final total volume of 100 μL/well and a final inoculum density of ˜5×10^5 CFU/ml. The completed assay plate was sealed with Parafilm, placed in a lidded plastic tray lined with moistened paper towels, and incubated at 37° C. for approximately 20 hours.” left out, “If a different plate or media type was used for a particular test, this is noted below the respective table.” left out

[2] = test system: E. coli NCTC 13846 (colistin-resistant); assay: MIC by broth microdilution, E. coli NCTC 13846; assay type: cell-based; conditions: Escherichia coli, NCTC13846
Experimental: as §1, with “A 50 μL portion of inoculum was added to a treatment plate containing 2-fold serial dilutions of compound in MHB (50 μL of treatment/well) to lend a final total volume of 100 μL/well and a final inoculum density of ˜5×10^5 CFU/ml. The completed assay plate was sealed with Parafilm, placed in a lidded plastic tray lined with moistened paper towels, and incubated at 37° C. for approximately 20 hours.” left out, “If a different plate or media type was used for a particular test, this is noted below the respective table.” left out

E. coli BW25113 = assay: MIC by broth microdilution, E. coli BW25113; assay type: cell-based; conditions: Escherichia coli
Experimental: as §1, with “A 50 μL portion of inoculum was added to a treatment plate containing 2-fold serial dilutions of compound in MHB (50 μL of treatment/well) to lend a final total volume of 100 μL/well and a final inoculum density of ˜5×10^5 CFU/ml. The completed assay plate was sealed with Parafilm, placed in a lidded plastic tray lined with moistened paper towels, and incubated at 37° C. for approximately 20 hours.” left out, “If a different plate or media type was used for a particular test, this is noted below the respective table.” left out

E. coli BW25113ΔtolC = assay: MIC by broth microdilution, E. coli BW25113ΔtolC; assay type: cell-based; conditions: Escherichia coli
Experimental: as §1, with “A 50 μL portion of inoculum was added to a treatment plate containing 2-fold serial dilutions of compound in MHB (50 μL of treatment/well) to lend a final total volume of 100 μL/well and a final inoculum density of ˜5×10^5 CFU/ml. The completed assay plate was sealed with Parafilm, placed in a lidded plastic tray lined with moistened paper towels, and incubated at 37° C. for approximately 20 hours.” left out, “If a different plate or media type was used for a particular test, this is noted below the respective table.” left out

A. baumannii ATCC 19606 = assay: MIC by broth microdilution, A. baumannii ATCC 19606; assay type: cell-based; conditions: Acinetobacter baumannii, ATCC19606
Experimental: as §1, with “A 50 μL portion of inoculum was added to a treatment plate containing 2-fold serial dilutions of compound in MHB (50 μL of treatment/well) to lend a final total volume of 100 μL/well and a final inoculum density of ˜5×10^5 CFU/ml. The completed assay plate was sealed with Parafilm, placed in a lidded plastic tray lined with moistened paper towels, and incubated at 37° C. for approximately 20 hours.” left out, “If a different plate or media type was used for a particular test, this is noted below the respective table.” left out

K. pneumoniae BAA-2146 = assay: MIC by broth microdilution, K. pneumoniae BAA-2146; assay type: cell-based; conditions: Klebsiella pneumoniae, BAA2146
Experimental: as §1, with “A 50 μL portion of inoculum was added to a treatment plate containing 2-fold serial dilutions of compound in MHB (50 μL of treatment/well) to lend a final total volume of 100 μL/well and a final inoculum density of ˜5×10^5 CFU/ml. The completed assay plate was sealed with Parafilm, placed in a lidded plastic tray lined with moistened paper towels, and incubated at 37° C. for approximately 20 hours.” left out, “If a different plate or media type was used for a particular test, this is noted below the respective table.” left out

[3] = test system: S. aureus USA400 (MRSA), MW2; assay: Minimum Bacterial Eradication Concentration (MBEC) assay; assay type: cell-based
E. coli 25922 = assay: Time-kill kinetics against E. coli 25922 (FIG. 2); assay type: cell-based
S. aureus ATCC 29213 [4] = conditions: cited from earlier work
[5] = S. aureus (ATCC 29213), Mueller Hinton Broth, polypropylene plate
[6] = S. aureus (ATCC 29213), cation-adjusted MHB2 supplemented with 50 g/L Ca2+

CN[C@H](CC(C)C)C(=O)N[C@H]1C(=O)N[C@@H](CC(N)=O)C(=O)N[C@H]2C(=O)N[C@H]3C(=O)N[C@H](C(=O)N[C@H](C(=O)O)c4cc(O)cc(O)c4-c4cc3ccc4O)[C@H](O)c3ccc(c(Cl)c3)Oc3cc2cc(c3O[C@@H]2O[C@H](CO)[C@@H](O)[C@H](O)[C@H]2O[C@H]2C[C@](C)(N)[C@H](O)[C@H](C)O2)Oc2ccc(cc2Cl)[C@H]1O [Vancomycin]
MIC, Antibiotic +NH2-triguan-6C (S. aureus ATCC 29213 [1]; [5]): 1 µM (≈ 1.45 µg/mL)
MIC, Antibiotic +NO2-triamine-2C (S. aureus ATCC 29213 [1]; [5]): 1 µM (≈ 1.45 µg/mL)
MIC, Antibiotic +NO2-triamine-6C (S. aureus ATCC 29213 [1]; [5]): 0.5 to 1 µM
MIC (S. aureus ATCC 29213 [1]; ATCC29213): 0.5 to 1 µM (≈ 0.725 to 1.45 µg/mL)
MIC (S. aureus ATCC 29213 [1]; ATCC29213, 20 h, read-out: MIC, Antibiotic Alone): 0.5 to 1 µM (≈ 0.725 to 1.45 µg/mL)
MIC (S. aureus USA400 (MRSA)): 1 µM (≈ 1.45 µg/mL)
MIC (M. smegmatis): 8 to 16 µM (≈ 11.6 to 23.2 µg/mL)
MIC (M. abscessus): 64 µM (≈ 92.8 µg/mL)
MIC (C. glutamicum): 0.25 µM (≈ 0.362 µg/mL)
MIC (E. coli ATCC 25922): 128 µM (≈ 186 µg/mL)
MIC (E. coli UTI89): 128 µM (≈ 186 µg/mL)
MIC [2]: 64 to 128 µM (≈ 92.8 to 186 µg/mL)
MIC (E. coli BW25113): 128 µM (≈ 186 µg/mL)
MIC (E. coli BW25113ΔtolC): 128 to 256 µM (≈ 186 to 371 µg/mL)
MIC (A. baumannii ATCC 19606): 128 µM (≈ 186 µg/mL)
MIC (K. pneumoniae BAA-2146): > 256 µM
MBEC [3]: >512 µM
Concentration at which effective in time-kill (E. coli 25922): 256 µM
Literature MIC (S. aureus ATCC 29213 [4]): 0.34 to 1.4 µM

CC[C@H]1OC(=O)[C@H](C)[C@@H](O[C@H]2C[C@@](C)(OC)[C@@H](O)[C@H](C)O2)[C@H](C)[C@@H](O[C@@H]2O[C@H](C)C[C@H](N(C)C)[C@H]2O)[C@](C)(O)C[C@@H](C)CN(C)[C@H](C)[C@@H](O)[C@]1(C)O [Azithromycin]
MIC, Antibiotic +NH2-triguan-6C (S. aureus ATCC 29213 [1]; [5]): 2 µM (≈ 1.5 µg/mL)
MIC, Antibiotic +NO2-triamine-2C (S. aureus ATCC 29213 [1]; [5]): 2 µM (≈ 1.5 µg/mL)
MIC, Antibiotic +NO2-triamine-6C (S. aureus ATCC 29213 [1]; [5]): 2 µM (≈ 1.5 µg/mL)
MIC (S. aureus ATCC 29213 [1]; ATCC29213, 20 h, S. aureus (ATCC 29213), Mueller Hinton Broth, polypropylene plate, read-out: MIC, Antibiotic Alone): 2 µM (≈ 1.5 µg/mL)
Literature MIC (S. aureus ATCC 29213 [4]): 0.64 to 2.5 µM

CCCCCCCCCC(=O)N[C@@H](Cc1c[nH]c2ccccc12)C(=O)N[C@H](CC(N)=O)C(=O)N[C@@H](CC(=O)O)C(=O)N[C@@H]1C(=O)NCC(=O)N[C@@H](CCCN)C(=O)N[C@@H](CC(=O)O)C(=O)N[C@H](C)C(=O)N[C@@H](CC(=O)O)C(=O)NCC(=O)N[C@H](CO)C(=O)N[C@@H]([C@H](C)CC(=O)O)C(=O)N[C@@H](CC(=O)c2ccccc2N)C(=O)O[C@@H]1C [Daptomycin]
MIC, Antibiotic +NH2-triguan-6C (S. aureus ATCC 29213 [1]; S. aureus (ATCC 29213), cation-adjusted MHB2 supplemented): 0.5 µM (≈ 0.81 µg/mL)
MIC, Antibiotic +NO2-triamine-2C (S. aureus ATCC 29213 [1]; [6]): 0.5 µM (≈ 0.81 µg/mL)
MIC, Antibiotic +NO2-triamine-6C (S. aureus ATCC 29213 [1]; [6]): 0.5 µM (≈ 0.81 µg/mL)
MIC (S. aureus ATCC 29213 [1]; ATCC29213, 20 h, S. aureus (ATCC 29213), cation-adjusted MHB2 supplemented, read-out: MIC, Antibiotic Alone): 0.5 µM (≈ 0.81 µg/mL)
Literature MIC (S. aureus ATCC 29213 [4]): 0.077 to 0.62 µM
